# The source made the active and inactive calls.
# Experiments:
# [1] = MC4R antagonists, dose response, counter-screen for LGR2 antagonist project, cell-based, plate reader, cherry pick (AID 743444); assay type: functional;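 note: transfected HEK 293 cells stimulated with alpha-MSH peptide; potency of inhibitors of the alpha-MSH evoked signal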
# [2] = LGR2 antagonists, dose response, cell-based, HEK293, CRE-luciferase reporter, cherry pick, set 2 (AID 743343); assay type: functional;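 note: transfected cells were stimulated with diluted bursicon conditioned medium after compound addition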
# [3] = A549 cell cytotoxicity, dose response, cytotoxicity control, plate reader, cherry-pick, antagonist series (AID 743412); assay type: functional, cell-based
# [4] = HepG2 cell cytotoxicity, dose response, cytotoxicity control, plate reader, cherry-pick, antagonist series (AID 743416); assay type: functional, cell-based
# [5] = HEK293 cell cytotoxicity, dose response, cytotoxicity control, plate reader, cherry-picked samples (AID 743446); assay type: functional, cell-based
# [6] = target: T1, Oxysterols receptor LXR-beta (Homo sapiens, UniProt P55055); assay type: functional, cell-based;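 note: agonist activity at LXR measured by a cell-based luminescence readout across a dose range, run as a counterscreen for daf-12 agonists; HEK293 cells with Gal4-LXR fusion and GAL4-driven luciferase reporter; potency for activation of Gal4-LXR reporter so compounds are agonists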
# T1 sequence (P55055 whole entry): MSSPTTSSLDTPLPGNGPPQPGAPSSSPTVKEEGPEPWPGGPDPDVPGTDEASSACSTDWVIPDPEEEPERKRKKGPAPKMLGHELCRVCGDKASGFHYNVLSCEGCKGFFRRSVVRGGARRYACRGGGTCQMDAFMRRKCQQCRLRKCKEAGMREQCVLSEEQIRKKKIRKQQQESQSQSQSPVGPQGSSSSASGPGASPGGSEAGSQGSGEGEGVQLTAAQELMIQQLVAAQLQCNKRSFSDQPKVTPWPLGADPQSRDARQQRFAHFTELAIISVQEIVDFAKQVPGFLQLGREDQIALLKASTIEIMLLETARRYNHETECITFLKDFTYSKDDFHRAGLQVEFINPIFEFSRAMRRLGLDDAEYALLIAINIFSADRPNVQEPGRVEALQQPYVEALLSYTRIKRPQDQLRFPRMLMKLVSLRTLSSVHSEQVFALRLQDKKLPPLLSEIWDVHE
# BJ [7] = test: cytotoxicity toward BJ-TERT-LT-ST fibroblasts, dose response, cell-based, RAS-independent, luminescence (AID 1935); assay type: functional; conditions: Homo sapiens;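 note: BJ fibroblasts immortalized with TERT plus LT and ST oncogenes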
# [8] = Luminescence Cell-Based Dose Confirmation HTS to Identify Inhibitors of Platelet Dense Granule Release. [Related pubchem assays: 1663 (Primary HTS), 1678 (Summary of Project)]; assay type: functional
# [9] = target: Luciferin 4-monooxygenase (Photinus pyralis, UniProt P08659); test: firefly luciferase enzyme inhibitors, dose response, biochemical, luminescence (AID 1891)
# [10] = cytotoxicity toward DRD oncogenic fibroblasts, dose response, cell-based, non-viral oncogenic, luminescence (AID 1934); assay type: functional; conditions: Homo sapiens
# BJ [11] = test: cells; assay type: functional, cell-based; conditions: Homo sapiens
# BJ [12] = test: cytotoxicity toward BJ-TERT fibroblasts, dose response, cell-based, RAS-independent, luminescence (AID 1933); assay type: functional; conditions: Homo sapiens
# [13] = HepG2 cell cytotoxicity, dose response, cytotoxicity control for Shn3 inhibitor project, CellTiter-Glo, cherry-picked (AID 624134); assay type: functional, cell-based
# [14] = target: Disintegrin and metalloproteinase domain-containing protein 17 (Homo sapiens, UniProt P78536); test: exosite inhibitors of ADAM17, dose response, biochemical (AID 743260)
# [15] = Shn3 3'UTR reporter inhibitors, dose response, cell-based, Clone20 osteoblasts, firefly luciferase, cherry-picked (AID 624132); assay type: functional;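 note: firefly luciferase luminescence from reporter carrying the Shn3 3'UTR in osteoblasts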
# H9c2 = test: cells; assay type: functional, cell-based; conditions: Rattus norvegicus, H9c2, Myocardium;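 note: confirmatory concentration-response retest of ultra-high-throughput screening hits for modulation of myocardial damage; cell death induced by hydrogen peroxide oxidative stress; compound pretreatment for 60 min then peroxide exposure for 2 h; potency is for protecting the cells against peroxide damage rather than for killing them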
# [16] = ADAM10 protease inhibitors, dose response, selectivity assay for ADAM17 exosite inhibitor project, biochemical, FRET peptide substrate, recombinant human ADAM10 (AID 743259);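 note: ADAM10 enzyme cleaving a FRET peptide substrate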
# Aminopeptidase N = target: T2, Aminopeptidase N (Plasmodium falciparum FcB1/Columbia, UniProt O96935); test: P. falciparum M1AAP inhibitors, biochemical, fluorogenic H-Leu-NHMec substrate, 1536-well (AID 1445); parameters: species or system Plasmodium falciparum 3D7, 3D7
# T2 sequence (O96935 whole entry): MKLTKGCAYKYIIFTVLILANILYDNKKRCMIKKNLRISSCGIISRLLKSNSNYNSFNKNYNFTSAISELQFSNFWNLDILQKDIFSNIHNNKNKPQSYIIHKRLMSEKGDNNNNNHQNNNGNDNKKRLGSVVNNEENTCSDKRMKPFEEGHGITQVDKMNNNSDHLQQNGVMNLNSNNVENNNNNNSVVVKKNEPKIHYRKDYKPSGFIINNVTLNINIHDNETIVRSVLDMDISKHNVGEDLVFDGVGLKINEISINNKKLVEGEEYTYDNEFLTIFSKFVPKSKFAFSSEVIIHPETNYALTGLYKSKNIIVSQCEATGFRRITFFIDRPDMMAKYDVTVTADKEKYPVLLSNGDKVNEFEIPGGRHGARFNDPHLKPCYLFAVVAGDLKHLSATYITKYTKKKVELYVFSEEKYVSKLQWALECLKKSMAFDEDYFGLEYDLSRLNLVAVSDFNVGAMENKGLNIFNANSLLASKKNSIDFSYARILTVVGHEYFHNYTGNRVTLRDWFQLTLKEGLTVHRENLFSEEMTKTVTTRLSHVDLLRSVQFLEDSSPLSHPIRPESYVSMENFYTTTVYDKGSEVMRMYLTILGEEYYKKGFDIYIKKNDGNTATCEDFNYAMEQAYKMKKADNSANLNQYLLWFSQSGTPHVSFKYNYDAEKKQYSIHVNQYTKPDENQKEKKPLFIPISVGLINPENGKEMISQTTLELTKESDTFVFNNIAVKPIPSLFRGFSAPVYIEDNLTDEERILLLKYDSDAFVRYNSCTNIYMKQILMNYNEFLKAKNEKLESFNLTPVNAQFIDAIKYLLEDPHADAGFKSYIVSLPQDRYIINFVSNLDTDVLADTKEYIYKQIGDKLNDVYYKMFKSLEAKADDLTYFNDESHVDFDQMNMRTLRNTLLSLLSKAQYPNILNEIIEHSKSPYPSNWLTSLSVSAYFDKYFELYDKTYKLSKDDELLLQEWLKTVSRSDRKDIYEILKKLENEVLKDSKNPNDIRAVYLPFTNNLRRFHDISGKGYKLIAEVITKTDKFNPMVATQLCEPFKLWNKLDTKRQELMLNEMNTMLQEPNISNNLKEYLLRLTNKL
# [17] = target: T3, Tyrosyl-DNA phosphodiesterase 2 (Homo sapiens, UniProt O95551); test: human TDP2 enzyme inhibitors, dose response, biochemical, epi absorbance, IC50 (AID 743297)
# T3 sequence (O95551 whole entry): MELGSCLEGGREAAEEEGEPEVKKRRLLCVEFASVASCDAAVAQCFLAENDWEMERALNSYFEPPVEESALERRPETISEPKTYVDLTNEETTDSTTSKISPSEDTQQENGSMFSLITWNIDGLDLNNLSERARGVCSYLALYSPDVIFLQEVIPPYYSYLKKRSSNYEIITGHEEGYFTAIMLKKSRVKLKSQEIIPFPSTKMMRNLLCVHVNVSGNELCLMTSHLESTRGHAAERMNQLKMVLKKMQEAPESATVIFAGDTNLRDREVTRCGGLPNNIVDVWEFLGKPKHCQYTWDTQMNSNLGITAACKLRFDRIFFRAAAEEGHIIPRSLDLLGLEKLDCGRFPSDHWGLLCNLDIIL
# [18] = Luminescence Cell-Based Dose Retest to Confirm Inhibitors of Cancer Stem Cells. [Related pubchem assays (depositor defined):AID2717, AID2721]; assay type: functional; conditions: Homo sapiens
# [19] = target: Heat shock protein HSP 90-alpha (Homo sapiens, UniProt P07900); assay type: functional, organism-based
# Sequence of Luciferin 4-monooxygenase (P08659 whole entry): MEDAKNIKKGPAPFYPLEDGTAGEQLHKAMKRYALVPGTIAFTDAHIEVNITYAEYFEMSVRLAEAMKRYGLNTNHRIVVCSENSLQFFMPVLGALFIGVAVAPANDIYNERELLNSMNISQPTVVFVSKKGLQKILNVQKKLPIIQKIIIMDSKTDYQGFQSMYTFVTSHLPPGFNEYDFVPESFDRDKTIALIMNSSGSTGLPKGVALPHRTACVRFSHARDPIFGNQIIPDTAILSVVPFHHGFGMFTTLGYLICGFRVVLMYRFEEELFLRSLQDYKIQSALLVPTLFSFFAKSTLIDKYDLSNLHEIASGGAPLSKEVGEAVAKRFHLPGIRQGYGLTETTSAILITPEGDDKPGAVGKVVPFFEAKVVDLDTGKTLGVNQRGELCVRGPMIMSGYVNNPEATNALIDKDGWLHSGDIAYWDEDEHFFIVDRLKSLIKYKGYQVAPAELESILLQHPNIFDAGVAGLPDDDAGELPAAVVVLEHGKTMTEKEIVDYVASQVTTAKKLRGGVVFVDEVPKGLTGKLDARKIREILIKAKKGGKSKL
# Sequence of Disintegrin and metalloproteinase domain-containing protein 17 (P78536 whole entry, the tested form may be a part): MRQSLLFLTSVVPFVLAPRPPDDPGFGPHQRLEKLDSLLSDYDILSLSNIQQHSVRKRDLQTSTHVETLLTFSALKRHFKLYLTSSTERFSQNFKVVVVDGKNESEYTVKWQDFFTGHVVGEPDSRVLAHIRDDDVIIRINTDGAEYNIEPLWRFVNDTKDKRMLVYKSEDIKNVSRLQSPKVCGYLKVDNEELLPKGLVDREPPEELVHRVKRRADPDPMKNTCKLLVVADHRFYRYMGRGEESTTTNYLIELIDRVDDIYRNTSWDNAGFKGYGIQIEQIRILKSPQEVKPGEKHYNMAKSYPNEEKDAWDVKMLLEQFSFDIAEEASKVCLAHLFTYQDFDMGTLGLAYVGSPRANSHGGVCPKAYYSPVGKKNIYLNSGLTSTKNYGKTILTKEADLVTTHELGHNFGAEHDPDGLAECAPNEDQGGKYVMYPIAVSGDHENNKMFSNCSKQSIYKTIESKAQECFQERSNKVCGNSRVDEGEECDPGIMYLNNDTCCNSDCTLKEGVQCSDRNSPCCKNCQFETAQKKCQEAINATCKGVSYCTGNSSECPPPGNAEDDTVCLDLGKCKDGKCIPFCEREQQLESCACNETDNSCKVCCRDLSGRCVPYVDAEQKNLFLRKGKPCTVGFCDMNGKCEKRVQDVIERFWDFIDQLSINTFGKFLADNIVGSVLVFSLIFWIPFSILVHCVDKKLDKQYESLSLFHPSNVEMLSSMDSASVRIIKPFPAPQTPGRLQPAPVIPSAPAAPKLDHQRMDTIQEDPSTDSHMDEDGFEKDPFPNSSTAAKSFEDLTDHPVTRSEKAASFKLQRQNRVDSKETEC
smiles,measurement,setting,value
COc1ccc(CC(=O)Nc2cccc(-c3nnc(-c4ccc(C)cc4)o3)c2)cc1OC,AC50,[1],8.14 µM (active)
same,AC50,[2],7.65 µM (active)
same,AC50,[3],33.4 µM (active)
same,AC50,[4],30.3 µM (active)
same,AC50,[5],10.7 µM (active)
Cc1nc2sc(-c3ccccc3)nn2c(=O)c1Br,EC50,[6],> 67.5 µM (inactive)
COc1ccc(-c2ccc(SC)nn2)cc1,EC50,BJ [7],15.7 µM (active)
same,AC50,[1],6.62 µM (active)
same,EC50,[8],1.98 µM (active)
same,EC50,[9],1.1 µM (active)
same,EC50,[10],6.25 µM (active)
same,EC50,BJ [11],6.55 µM (active)
same,AC50,[2],5.07 µM (active)
same,EC50,BJ [12],6.75 µM (active)
same,AC50,[3],14.4 µM (active)
same,AC50,[4],8.69 µM (active)
same,AC50,[5],8.72 µM (active)
COc1ccc(OC)c(NC(=O)COC(=O)c2c3c(nc4ccccc24)CCCC3)c1,AC50,[13],> 70 µM (inactive)
same,IC50,[14],> 69.5 µM (inactive)
same,AC50,[15],8.67 µM (active)
same,IC50,H9c2,> 79 µM (inactive)
same,IC50,[16],> 69.5 µM (inactive)
CCCCn1c(NS(=O)(=O)c2ccccc2)c(C(=O)OCC)c2nc3ccccc3nc21,IC50,Aminopeptidase N,74.4 µM (active)
same,IC50,[17],> 128 µM (inactive)
Cc1cc(N=Nc2ccc3ccccc3c2)ccc1O,AC50,[18],3.23 µM (active)
same,EC50,[6],> 67.6 µM (inactive)
same,AC50,[19],3.92 µM (active)
